Experimental data reported in ChEMBL document CHEMBL1201862, “PubChem BioAssay data set” (2004).
Where “and” joins values, the source holds several entries; their conditions need not be identical. Equal entries are not always repeated. Calls of active or inactive are those of the source.

Experiments:
[1] = viability loss in A549 lung cells – cell-based, 24 h, CellTiter-Glo luminescence, cherry-picks, cytotoxicity control, dose response (AID 1053115); type: functional; conditions: A549, 24 h
[2] = viability loss in CEM21 cells – cell-based, plate reader, dry powder, cytotoxicity control, dose response (AID 687026); type: functional
[3] = inhibition of Env-driven cell fusion – HIV entry, plate reader, dry powder, dose response (AID 687023); type: functional, cell-based
[4] = viability inhibitors of stage V gametocytes – luminescence, dose response (AID 1117278); type: functional, cell-based;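 note: gametocytes exposed to compound for 24 hours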
[5] = viability loss in human Jurkat cells – cell-based, luminescence, cytotoxicity control for P. falciparum gametocyte viability project, dose response (AID 1117277); type: functional;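 note: potency reflects loss of cellular ATP meaning fewer viable cells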
[6] = target: RNA-editing ligase 1, mitochondrial (Trypanosoma brucei brucei, UniProt P86926); assay: inhibition of trypanosome RNA editing ligase – biochemical, fluorescence, Trypanosoma brucei, dose response (AID 1117295); type: functional
[7] = target: Glutathione-S-transferase (Schistosoma japonicum, UniProt Q26513); assay: GST-antibody interaction or FRET quenching – biochemical, TR-FRET, artefact control for Vif-APOBEC3G degradation inhibitor project, dose response (AID 1117362); type: functional
[8] = A2780 cell killing – plate reader, dry powder samples, cytotoxicity control, dose response (AID 743046); type: functional, cell-based
[9] = OVCAR8 cell viability loss – plate reader, dry powder samples, PAX8 project, dose response (AID 743197); type: functional, cell-based; conditions: OVCAR-8
[10] = OVCAR-3 cell viability loss – plate reader, dry powder samples, PAX8 inhibitor project, dose response (AID 743044); type: functional, cell-based
Paired box protein Pax-8 = Paired box protein Pax-8 (Homo sapiens, UniProt Q06710); assay: PAX8 transcriptional activity inhibition in RMG-I – RMG-I cells, luciferase, cherry-pick, dose response (AID 687027); type: functional, cell-based;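 note: luciferase reporter driven by Pax8 target thyroperoxidase promoter measured by SteadyGlo luminescence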
[11] = toxicity to human HepG2 hepatoma cells – cell-based, plate reader, dry powder samples, cytotoxicity control, dose response (AID 1159569); type: functional;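 note: inhibitor potency with signal falling toward the positive control level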
[12] = growth inhibition of yeast DHODH-expressing 3D7 parasites – SYBR Green, dry powder samples, dose response (AID 1159570); type: functional, cell-based;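 note: parasite growth measured after 72 hours of compound exposure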
[13] = Dd2 malaria parasite growth inhibition potency – SYBR Green, dry powder samples, dose response (AID 1159566); type: functional, cell-based;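 note: potency for growth inhibition with lower SYBR green DNA signal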
[14] = P. falciparum Dd2 growth inhibitors, dose response, SYBR Green, cherry-picked samples (AID 1159567); type: functional, cell-based
[15] = growth inhibition of PfATP4-mutant resistant parasites – NITD609-resistant line, SYBR Green, dry powder, dose response (AID 1159571); type: functional, cell-based;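 note: parasites synchronized at ring stage by sorbitol before testing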
[16] = PAX8-dependent cell viability loss – plate reader, dry powder, dose response (AID 743049); type: functional, cell-based
[17] = target: 1-phosphatidylinositol 4,5-bisphosphate phosphodiesterase gamma-1 (Homo sapiens, UniProt P19174); assay: Counterscreen for inhibitors of phospholipase C isozymes (PLC-B3): Fluorescence-based biochemical high throughput dose response assay to identify inhibitors of phospholipase C isozymes (PLC-gamma1).
[18] = target: 1-phosphatidylinositol 4,5-bisphosphate phosphodiesterase beta-3 (Homo sapiens, UniProt Q01970); assay: Fluorescence-based biochemical high throughput dose response assay to identify inhibitors of phospholipase C isozymes (PLC-B3).
[19] = CellTiter-Glo luminescence survival assay, SW480 colon tumor line, concentration-response curve, half-maximal inhibitory concentration (AID 1117338); type: functional
[20] = RKO cell viability reduction, dose response, CellTiter-Glo luminescence (AID 1117322); type: functional
[21] = rise of 2N DNA cells, HeLa – IC50, dose response (AID 1117349); type: functional, cell-based
[22] = HCT116 cell viability decrease, GSK3B pretreatment – CellTiter-Glo, IC50, dose response (AID 1117339); type: functional; conditions: HCT-116
[23] = rise of 4N DNA cells, HeLa – IC50, dose response (AID 1117351); type: functional, cell-based
[24] = cytotoxicity toward Colo320 cells – cell-based, CellTiter-Glo luminescence, IC50, dose response (AID 1117334); type: functional; conditions: COLO 320
[25] = cytotoxicity toward HCT116 cells – cell-based, CellTiter-Glo luminescence, IC50, dose response (AID 1117332); type: functional; conditions: HCT-116
[26] = Potency on glucagon-like peptide 1 release, dose-response in NCI-H716 cell line, half maximal inhibitory concentration (AID 1117344); type: functional, cell-based
[27] = Reduced DLD-1 viability, concentration-response, CellTiter-Glo luminescence (AID 1117352); type: functional
[28] = glucagon-like peptide-1 release potency in STC-1, concentration-response, half-maximal inhibitory concentration in the STC-1 line (AID 1117345); type: functional, cell-based
[29] = SNU-C1 cell viability reduction, dose response, CellTiter-Glo luminescence (AID 1117323); type: functional, cell-based
[30] = cytotoxicity toward HT-29 cells – cell-based, CellTiter-Glo luminescence, IC50, dose response (AID 1117330); type: functional
[31] = target: C-C chemokine receptor type 6 (Homo sapiens, UniProt P51684); assay: SAR analysis of small molecule antagonists of the CXCR6 receptor using a CCR6 receptor luminescent beta-arrestin counterscreen.; type: functional
[32] = target: C-X-C chemokine receptor type 4 (Homo sapiens, UniProt P61073); assay: SAR analysis of small molecule antagonists of the CXCR6 receptor using a CXCR4 receptor luminescent beta-arrestin counterscreen.; type: functional
Chain of C-X-C chemokine receptor type 4 (P61073 whole entry): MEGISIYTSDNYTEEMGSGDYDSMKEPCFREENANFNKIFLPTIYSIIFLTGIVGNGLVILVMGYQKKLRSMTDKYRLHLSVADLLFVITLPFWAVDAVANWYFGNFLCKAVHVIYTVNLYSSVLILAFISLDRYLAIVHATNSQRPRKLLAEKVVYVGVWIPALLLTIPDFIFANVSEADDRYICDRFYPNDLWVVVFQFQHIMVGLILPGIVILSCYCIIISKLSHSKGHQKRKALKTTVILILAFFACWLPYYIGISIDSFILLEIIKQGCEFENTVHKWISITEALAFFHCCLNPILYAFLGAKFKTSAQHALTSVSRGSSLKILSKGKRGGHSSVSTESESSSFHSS

Chain of Paired box protein Pax-8 (Q06710 whole entry): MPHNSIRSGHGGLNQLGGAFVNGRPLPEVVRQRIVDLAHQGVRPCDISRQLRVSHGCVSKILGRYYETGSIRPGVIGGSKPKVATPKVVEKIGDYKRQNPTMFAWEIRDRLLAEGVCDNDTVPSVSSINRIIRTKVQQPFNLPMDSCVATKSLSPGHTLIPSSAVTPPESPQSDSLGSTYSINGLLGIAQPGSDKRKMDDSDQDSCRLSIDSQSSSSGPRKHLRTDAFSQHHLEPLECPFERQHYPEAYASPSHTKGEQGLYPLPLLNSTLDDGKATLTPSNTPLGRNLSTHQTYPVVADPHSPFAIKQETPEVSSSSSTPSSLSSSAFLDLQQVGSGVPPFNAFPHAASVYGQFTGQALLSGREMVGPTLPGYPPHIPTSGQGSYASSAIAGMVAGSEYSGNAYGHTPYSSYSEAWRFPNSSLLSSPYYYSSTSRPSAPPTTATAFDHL
Chain of 1-phosphatidylinositol 4,5-bisphosphate phosphodiesterase beta-3 (Q01970 whole entry): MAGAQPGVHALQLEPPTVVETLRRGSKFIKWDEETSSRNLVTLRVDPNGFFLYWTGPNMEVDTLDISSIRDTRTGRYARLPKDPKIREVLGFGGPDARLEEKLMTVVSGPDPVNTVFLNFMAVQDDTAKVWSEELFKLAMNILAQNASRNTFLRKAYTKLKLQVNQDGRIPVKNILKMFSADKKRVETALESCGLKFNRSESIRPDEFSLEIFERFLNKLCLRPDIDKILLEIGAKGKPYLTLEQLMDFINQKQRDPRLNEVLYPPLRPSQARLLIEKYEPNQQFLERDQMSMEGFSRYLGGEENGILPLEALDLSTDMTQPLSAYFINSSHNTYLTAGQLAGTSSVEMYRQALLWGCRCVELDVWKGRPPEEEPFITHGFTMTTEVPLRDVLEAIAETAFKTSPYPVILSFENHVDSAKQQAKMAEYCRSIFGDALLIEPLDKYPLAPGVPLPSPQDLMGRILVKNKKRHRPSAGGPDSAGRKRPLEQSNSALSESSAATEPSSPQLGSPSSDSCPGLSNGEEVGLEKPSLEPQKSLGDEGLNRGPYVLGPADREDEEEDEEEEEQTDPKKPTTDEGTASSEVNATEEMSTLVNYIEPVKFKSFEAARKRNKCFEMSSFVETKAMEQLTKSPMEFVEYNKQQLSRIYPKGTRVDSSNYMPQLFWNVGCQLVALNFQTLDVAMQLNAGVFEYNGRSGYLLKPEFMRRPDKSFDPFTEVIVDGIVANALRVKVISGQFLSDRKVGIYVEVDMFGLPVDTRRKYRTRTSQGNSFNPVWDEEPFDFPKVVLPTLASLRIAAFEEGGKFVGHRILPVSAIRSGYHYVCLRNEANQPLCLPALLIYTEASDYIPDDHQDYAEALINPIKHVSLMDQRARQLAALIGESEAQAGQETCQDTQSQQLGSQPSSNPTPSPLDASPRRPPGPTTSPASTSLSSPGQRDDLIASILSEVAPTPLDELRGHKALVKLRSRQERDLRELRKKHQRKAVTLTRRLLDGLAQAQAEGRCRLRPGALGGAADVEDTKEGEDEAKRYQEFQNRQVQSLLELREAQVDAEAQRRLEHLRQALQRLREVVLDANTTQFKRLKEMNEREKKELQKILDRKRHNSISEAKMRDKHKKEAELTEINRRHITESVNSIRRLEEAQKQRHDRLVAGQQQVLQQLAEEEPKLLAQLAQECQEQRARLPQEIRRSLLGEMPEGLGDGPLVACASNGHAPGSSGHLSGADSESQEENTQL
Chain of Glutathione-S-transferase (Q26513 whole entry): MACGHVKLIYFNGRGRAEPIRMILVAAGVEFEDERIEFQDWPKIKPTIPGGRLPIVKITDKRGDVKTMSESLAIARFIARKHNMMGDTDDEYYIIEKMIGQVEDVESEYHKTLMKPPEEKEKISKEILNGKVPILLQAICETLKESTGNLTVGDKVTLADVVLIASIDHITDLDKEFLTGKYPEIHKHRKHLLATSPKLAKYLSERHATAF
Chain of C-C chemokine receptor type 6 (P51684 whole entry): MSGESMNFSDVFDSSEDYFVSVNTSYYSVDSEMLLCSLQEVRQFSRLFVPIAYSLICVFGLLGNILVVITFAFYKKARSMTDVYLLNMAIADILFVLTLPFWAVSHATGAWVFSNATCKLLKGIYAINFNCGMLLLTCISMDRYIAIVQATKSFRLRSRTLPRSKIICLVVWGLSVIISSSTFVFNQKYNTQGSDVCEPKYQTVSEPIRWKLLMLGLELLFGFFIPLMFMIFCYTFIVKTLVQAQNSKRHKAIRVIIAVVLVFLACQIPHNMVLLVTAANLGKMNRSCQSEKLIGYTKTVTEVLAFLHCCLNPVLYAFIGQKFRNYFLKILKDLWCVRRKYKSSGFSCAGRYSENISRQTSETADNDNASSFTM
Chain of RNA-editing ligase 1, mitochondrial (P86926 whole entry): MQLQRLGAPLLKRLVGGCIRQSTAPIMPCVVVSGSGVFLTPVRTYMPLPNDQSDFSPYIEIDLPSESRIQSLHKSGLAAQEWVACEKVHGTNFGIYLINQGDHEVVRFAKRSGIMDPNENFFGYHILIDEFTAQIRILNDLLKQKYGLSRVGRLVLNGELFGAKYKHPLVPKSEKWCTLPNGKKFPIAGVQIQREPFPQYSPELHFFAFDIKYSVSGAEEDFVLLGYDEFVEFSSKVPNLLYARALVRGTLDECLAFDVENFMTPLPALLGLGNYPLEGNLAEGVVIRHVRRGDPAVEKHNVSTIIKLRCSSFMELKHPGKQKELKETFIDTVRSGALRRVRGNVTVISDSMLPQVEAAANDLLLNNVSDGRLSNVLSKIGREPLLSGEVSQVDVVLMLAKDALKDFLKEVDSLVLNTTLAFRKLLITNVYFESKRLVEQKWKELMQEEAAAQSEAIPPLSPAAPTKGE
Chain of 1-phosphatidylinositol 4,5-bisphosphate phosphodiesterase gamma-1 (P19174 whole entry): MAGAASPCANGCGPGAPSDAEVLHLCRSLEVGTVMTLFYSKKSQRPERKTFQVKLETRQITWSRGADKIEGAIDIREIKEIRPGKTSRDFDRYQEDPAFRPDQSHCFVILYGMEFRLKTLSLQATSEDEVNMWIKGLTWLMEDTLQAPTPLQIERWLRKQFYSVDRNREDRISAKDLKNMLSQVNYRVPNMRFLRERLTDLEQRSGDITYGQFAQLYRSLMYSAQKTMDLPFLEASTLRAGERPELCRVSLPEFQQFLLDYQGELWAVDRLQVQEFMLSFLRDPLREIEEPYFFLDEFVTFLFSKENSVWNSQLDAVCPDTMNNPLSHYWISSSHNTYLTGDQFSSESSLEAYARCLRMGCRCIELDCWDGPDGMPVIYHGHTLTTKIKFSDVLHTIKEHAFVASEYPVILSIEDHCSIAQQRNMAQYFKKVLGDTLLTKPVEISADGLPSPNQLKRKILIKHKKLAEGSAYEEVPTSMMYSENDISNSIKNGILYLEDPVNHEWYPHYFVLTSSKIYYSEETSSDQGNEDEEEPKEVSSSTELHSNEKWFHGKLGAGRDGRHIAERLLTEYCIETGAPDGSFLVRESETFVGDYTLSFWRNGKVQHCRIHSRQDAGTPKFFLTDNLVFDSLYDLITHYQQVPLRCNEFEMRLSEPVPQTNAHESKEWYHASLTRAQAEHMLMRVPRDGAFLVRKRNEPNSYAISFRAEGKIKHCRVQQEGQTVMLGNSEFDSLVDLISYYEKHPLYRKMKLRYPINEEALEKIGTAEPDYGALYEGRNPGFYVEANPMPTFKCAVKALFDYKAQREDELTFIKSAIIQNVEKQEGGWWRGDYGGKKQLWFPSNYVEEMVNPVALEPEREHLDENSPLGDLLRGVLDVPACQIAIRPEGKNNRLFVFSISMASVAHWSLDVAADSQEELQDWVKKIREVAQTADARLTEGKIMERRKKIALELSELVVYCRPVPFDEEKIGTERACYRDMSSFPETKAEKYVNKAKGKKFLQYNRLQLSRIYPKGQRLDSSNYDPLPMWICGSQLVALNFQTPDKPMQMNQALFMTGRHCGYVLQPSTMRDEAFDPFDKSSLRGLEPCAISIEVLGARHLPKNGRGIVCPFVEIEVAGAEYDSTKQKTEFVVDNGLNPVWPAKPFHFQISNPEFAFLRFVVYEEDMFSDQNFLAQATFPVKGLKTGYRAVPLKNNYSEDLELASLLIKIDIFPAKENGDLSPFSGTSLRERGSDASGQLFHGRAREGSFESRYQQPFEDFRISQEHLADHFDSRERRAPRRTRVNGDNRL

N#Cc1ccc(-c2ccc3c(c2)[C@@H]2[C@@H](CCN2C(=O)C2CCCCC2)[C@H](CO)N3)cc1
AC50 [1]: 46.8 µM (active)

Clc1ccc2c(c1)C(C1=NCCN1)c1ccccc1CS2 (stereo not given)
AC50 [2]: > 70 µM (inactive)
AC50 [3]: 42.5 µM (active) and 54 µM (active)

Cc1ccccc1-c1nc(CN2CCCC(C(=O)NCCCN3CCOCC3)C2)c(C)o1 (stereo not given)
IC50 [4]: > 109 µM (inactive)
IC50 [5]: > 83.3 µM (inactive)

CC(C)c1c(Cl)c(O)c(-c2ccccc2)c(=O)n1-c1ccc(F)cc1
IC50 [6]: 61.6 µM (inactive)

CC1CCCCN1Cc1ccc(N(C)C)cc1 (stereo not given)
IC50 [7]: > 100 µM (active)

O=C(C1CCC1)N1CC(=O)N2[C@H](C1)[C@H](c1ccc(C#Cc3cccc(F)c3)cc1)[C@@H]2CO
AC50 [8]: 18 µM (active)
AC50 [9]: > 70 µM (inactive)
AC50 [10]: 9.85 µM (active)
AC50 (Paired box protein Pax-8): 10.6 µM (active)

COc1cccc(C#Cc2cnc3c(c2)C(=O)N([C@H](C)CO)C[C@H](C)[C@@H](CN(C)C(=O)C2CCCCC2)O3)c1
AC50 [11]: 29.4 µM (active)
AC50 [12]: 1.58 µM (active)
AC50 [13]: 0.643 µM (active)
AC50 [14]: 0.722 µM (active)
AC50 [15]: 0.803 µM (active)

C[C@@H]1CN([C@H](C)CO)C(=O)CCCn2cc(nn2)CO[C@H]1CN(C)C(=O)Nc1ccc(-c2cccs2)cc1
AC50 [16]: 1.65 µM (active)
AC50 [9]: > 70 µM (inactive)
AC50 (Paired box protein Pax-8): < 0.26 µM (active)

O=C(O)CCCN1C(=O)/C(=C\c2ccco2)SC1=S
IC50 [17]: > 123 µM (inactive)
IC50 [18]: > 123 µM (inactive)

COC(=O)Nc1nc2cc(Sc3ccccc3)ccc2[nH]1 [FENBENDAZOLE]
IC50 [19]: > 20 µM (inactive)
IC50 [20]: 0.001 µM (active)
IC50 [21]: 0.204 µM (active)
IC50 [22]: 0.003 µM (active)
IC50 [23]: 0.195 µM (active)
IC50 [24]: > 20 µM (inactive)
IC50 [25]: 0.001 µM (active)
IC50 [26]: > 40 µM (inactive)
IC50 [27]: 0.0673 µM (active)
IC50 [28]: > 20 µM (inactive)
IC50 [29]: > 20 µM (inactive)
IC50 [30]: > 20 µM (inactive)

COc1ccc(NC(=O)CN2C3CCCC2CC(NC(=O)c2cc(OC)c(OC)c(OC)c2)C3)cc1 (stereo not given)
IC50 [31]: > 79 µM (inactive)
IC50 [32]: > 79 µM (inactive)
